Test results reported in PubChem BioAssay AID2060362 (Molecular Pharmacology Branch, DTP, NCI, 2025).
“And” between values parts separate entries of the source, which are not always exact repeats. Identical values can stand only once.

System: 128128-338-R-J1-PDC spheroids, viability % test/control
Experiment: Anticancer human tumor 128128-338-R-J1-PDC patient-derived melanoma cell line growth inhibition [TAK]
Conditions: spheroids with HUVEC and MSC; for viability, T/C: stronger effect = lower value
Summary of the method: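 Tumor cells were grown as spheroids with HUVEC and hMSC (60:25:15) and treated with targeted agents combined with TAK-243 or ipatasertib. Drugs were tested in half-log steps down from near the clinical Cmax, or from 10 microM where Cmax was unknown.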

[1] = curve of first compound, second compound 0.3 µM
[2] = curve of first compound, second compound 0.949 µM
[3] = curve of first compound, second compound 3 µM
[4] = curve of first compound, second compound 9.49 µM
[5] = curve of first compound, second compound 30 µM
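Note: spheroids exposed to compounds for 7 days.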
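Throughout, for viability, T/C: 100% = DMSO vehicle wells.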

`CC(C)(C)c1nc(-c2cccc(NS(=O)(=O)c3c(F)cccc3F)c2F)c(-c2ccnc(N)n2)s1` + CC(C)NCC(C(=O)N1CCN(c2ncnc3c2C(C)CC3O)CC1)c1ccc(Cl)cc1 showed an IC50 [1] of 46 nM, an IC50 [2] of 41.2 nM and an IC50 [3] of under 31.6 nM. It also gave an IC50 [4] of under 31.6 nM, an IC50 [5] of under 31.6 nM and a viability, T/C (second compound 0.3 µM, first compound 0.0316 µM) of 61%. For the same compound, the viability, T/C (second compound 0.3 µM, first compound 0.1 µM) was 27.1%, the viability, T/C (second compound 0.3 µM, first compound 0.316 µM) was 6.08% and the viability, T/C (second compound 0.3 µM, first compound 1 µM) was 1.93%. It also gave a viability, T/C (second compound 0.3 µM, first compound 3.16 µM) of 1.83%, a viability, T/C (second compound 0.3 µM, first compound 10 µM) of 8.83% and a viability, T/C (second compound 0.949 µM, first compound 0.0316 µM) of 58.6%. The viability, T/C (second compound 0.949 µM, first compound 0.1 µM) was 21%, the viability, T/C (second compound 0.949 µM, first compound 0.316 µM) was 2.85% and the viability, T/C (second compound 0.949 µM, first compound 1 µM) was 1.56%. For the same compound, the viability, T/C (second compound 0.949 µM, first compound 3.16 µM) was 0.98%, the viability, T/C (second compound 0.949 µM, first compound 10 µM) was 2.06% and the viability, T/C (second compound 3 µM, first compound 0.0316 µM) was 29.6%. For the same compound, the viability, T/C (second compound 3 µM, first compound 0.1 µM) was 8.97%, the viability, T/C (second compound 3 µM, first compound 0.316 µM) was 1.74% and the viability, T/C (second compound 3 µM, first compound 1 µM) was 1.17%. It also gave a viability, T/C (second compound 3 µM, first compound 3.16 µM) of 0.79%, a viability, T/C (second compound 3 µM, first compound 10 µM) of 0.99% and a viability, T/C (second compound 9.49 µM, first compound 0.0316 µM) of 12.7%. For the same compound, the viability, T/C (second compound 9.49 µM, first compound 0.1 µM) was 1.27%, the viability, T/C (second compound 9.49 µM, first compound 0.316 µM) was 1.2% and the viability, T/C (second compound 9.49 µM, first compound 1 µM) was 0.7%. For the same compound, the viability, T/C (second compound 9.49 µM, first compound 3.16 µM) was 0.6%, the viability, T/C (second compound 9.49 µM, first compound 10 µM) was 0.64% and the viability, T/C (second compound 30 µM, first compound 0.0316 µM) was 0.69%. For the same compound, the viability, T/C (second compound 30 µM, first compound 0.1 µM) was 0.56%, the viability, T/C (second compound 30 µM, first compound 0.316 µM) was 0.78% and the viability, T/C (second compound 30 µM, first compound 1 µM) was 0.44%. It also gave a viability, T/C (second compound 30 µM, first compound 3.16 µM) of 0.34% and a viability, T/C (second compound 30 µM, first compound 10 µM) of 0.42%.

`CC(=O)Nc1cccc(-n2c(=O)n(C3CC3)c(=O)c3c(Nc4ccc(I)cc4F)n(C)c(=O)c(C)c32)c1` + CC(C)NCC(C(=O)N1CCN(c2ncnc3c2C(C)CC3O)CC1)c1ccc(Cl)cc1 was tested, and the IC50 [1] was 1.62 nM, the IC50 [2] was 1.76 nM and the IC50 [3] was 1.25 nM. For the same compound, the IC50 [4] was 0.348 nM, the IC50 [5] was under 0.0949 nM and the viability, T/C (second compound 0.3 µM, first compound 94.9 pM) was 98.8%. It also gave a viability, T/C (second compound 0.3 µM, first compound 0.0003 µM) of 97.5%, a viability, T/C (second compound 0.3 µM, first compound 0.000949 µM) of 73.5% and a viability, T/C (second compound 0.3 µM, first compound 0.003 µM) of 22.7%. The viability, T/C (second compound 0.3 µM, first compound 0.00949 µM) was 2.28%, the viability, T/C (second compound 0.3 µM, first compound 0.03 µM) was 1.04% and the viability, T/C (second compound 0.949 µM, first compound 94.9 pM) was 100%. The viability, T/C (second compound 0.949 µM, first compound 0.0003 µM) was 94%, the viability, T/C (second compound 0.949 µM, first compound 0.000949 µM) was 77.8% and the viability, T/C (second compound 0.949 µM, first compound 0.003 µM) was 26.2%. For the same compound, the viability, T/C (second compound 0.949 µM, first compound 0.00949 µM) was 1.76%, the viability, T/C (second compound 0.949 µM, first compound 0.03 µM) was 0.37% and the viability, T/C (second compound 3 µM, first compound 94.9 pM) was 87.3%. The viability, T/C (second compound 3 µM, first compound 0.0003 µM) was 82.8%, the viability, T/C (second compound 3 µM, first compound 0.000949 µM) was 61.9% and the viability, T/C (second compound 3 µM, first compound 0.003 µM) was 12.6%. The viability, T/C (second compound 3 µM, first compound 0.00949 µM) was 0.36%, the viability, T/C (second compound 3 µM, first compound 0.03 µM) was 0.28% and the viability, T/C (second compound 9.49 µM, first compound 94.9 pM) was 63.9%. For the same compound, the viability, T/C (second compound 9.49 µM, first compound 0.0003 µM) was 55%, the viability, T/C (second compound 9.49 µM, first compound 0.000949 µM) was 16.2% and the viability, T/C (second compound 9.49 µM, first compound 0.003 µM) was 0.75%. The viability, T/C (second compound 9.49 µM, first compound 0.00949 µM) was 0.11%, the viability, T/C (second compound 9.49 µM, first compound 0.03 µM) was 0.09% and the viability, T/C (second compound 30 µM, first compound 94.9 pM) was 20.5%. It also gave a viability, T/C (second compound 30 µM, first compound 0.0003 µM) of 10.1%, a viability, T/C (second compound 30 µM, first compound 0.000949 µM) of 0.5% and a viability, T/C (second compound 30 µM, first compound 0.003 µM) of 0.25%. It also gave a viability, T/C (second compound 30 µM, first compound 0.00949 µM) of 0.1% and a viability, T/C (second compound 30 µM, first compound 0.03 µM) of 0.12%.

`Cc1nc(NC(=O)N2CCCC2C(N)=O)sc1-c1ccnc(C(C)(C)C(F)(F)F)c1` (centres undefined) was tested, and the viability, T/C (compound 0.0316 µM) was 96.8% and 97.9%, the viability, T/C (compound 0.1 µM) was 98% and 97.4% and the viability, T/C (compound 0.316 µM) was 96% and 95.9%. The viability, T/C (compound 1 µM) was 96.9% and 92.3%, the viability, T/C (compound 3.16 µM) was 90.8% and 88.5% and the viability, T/C (compound 10 µM) was 81.5% and 71.4%. It also gave an IC50 (curve of compound) of over 10000 nM.

With `COc1c(OCCCN2CCOCC2)ccc2c3n(c(=NC(=O)c4cnc(N)nc4)nc12)CCN3` the viability, T/C (compound 0.00316 µM) was 109% and 105%, the viability, T/C (compound 0.01 µM) was 99.4% and 96.6% and the viability, T/C (compound 0.0316 µM) was 99.3% and 84.1%. For the same compound, the viability, T/C (compound 0.1 µM) was 75.9% and 72%, the viability, T/C (compound 0.316 µM) was 21.6% and 15.2% and the viability, T/C (compound 1 µM) was 8.68% and 5.59%. For the same compound, the IC50 (curve of compound) was 173 nM and 153 nM.
